Test results taken from publication PMC10046369, “Low-Affinity/High-Selectivity Dopamine Transport Inhibition Sufficient to Rescue Cognitive Functions in the Aging Rat” (Biomolecules, 2023).

Columns and labels:
Test in all cases: biochemical
Parameters in all cases: KINOMEscan competition binding panel, per cent of control
Settings in all cases: read-out: %Ctrl @ 2800nM
PIK3C2B = PIK3C2B (Homo sapiens, UniProt O00750)
In short: (§1)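 Values are expressed as percent of control, calculated as ((test − positive control)/(negative control − positive control)) × 100, so lower numbers mean stronger hits. Binding was measured by KINOMEscan competition assay in a 450-kinase human panel including disease mutants, using the contractor's validated protocol.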

RET = RET (Homo sapiens, UniProt P07949)
In short: as §1

GAK = GAK (Homo sapiens, UniProt O14976)
In short: as §1

CDKL3 = CDKL3 (Homo sapiens, UniProt Q8IVW4)
In short: as §1

EPHA2 = EPHA2 (Homo sapiens, UniProt P29317)
In short: as §1

[1] = biological target: T1, RSK2(Kin.Dom.1-N-terminal) (Homo sapiens, UniProt P51812)
T1 construct: gene RPS6KA3; Kin.Dom.1-N-terminal
In short: as §1

[2] = biological target: T2, ABL1(F317L)-phosphorylated (Homo sapiens, UniProt P00519, F317L)
T2 construct: phosphorylated
In short: as §1

DAPK2 = DAPK2 (Homo sapiens, UniProt Q9UIK4)
In short: as §1

PRKG1 = PRKG1 (Homo sapiens, UniProt Q13976)
In short: as §1

TESK1 = TESK1 (Homo sapiens, UniProt Q15569)
In short: as §1

GRK4 = GRK4 (Homo sapiens, UniProt P32298)
In short: as §1

PRP4 = biological target: T3, PRP4 (Homo sapiens, UniProt Q13523)
T3 construct: gene PRPF4B
In short: as §1

SgK110 = biological target: T4, SgK110 (Homo sapiens, UniProt P0C264)
T4 construct: gene SBK3
In short: as §1

[3] = biological target: T5, RSK4(Kin.Dom.2-C-terminal) (Homo sapiens, UniProt Q9UK32)
T5 construct: gene RPS6KA6; Kin.Dom.2-C-terminal
In short: as §1

KIT(V559D) = KIT(V559D) (Homo sapiens, UniProt P10721, V559D)
In short: as §1

BMX = BMX (Homo sapiens, UniProt P51813)
In short: as §1

FES = FES (Homo sapiens, UniProt P07332)
In short: as §1

BRAF(V600E) = BRAF(V600E) (Homo sapiens, UniProt P15056, V600E)
In short: as §1

MYO3B = MYO3B (Homo sapiens, UniProt Q8WXR4)
In short: as §1

GCN2(Kin.Dom.2,S808G) = biological target: T6, GCN2(Kin.Dom.2,S808G) (Homo sapiens, UniProt Q9P2K8, S808G)
T6 construct: gene EIF2AK4; Kin.Dom.2
In short: as §1

TNK1 = TNK1 (Homo sapiens, UniProt Q13470)
In short: as §1

CSNK1A1L = CSNK1A1L (Homo sapiens, UniProt Q8N752)
In short: as §1

KIT-autoinhibited = KIT-autoinhibited (Homo sapiens, UniProt P10721)
In short: as §1

MARK4 = MARK4 (Homo sapiens, UniProt Q96L34)
In short: as §1

S6K1 = biological target: T7, S6K1 (Homo sapiens, UniProt P23443)
T7 construct: gene RPS6KB1
In short: as §1

CAMK1 = CAMK1 (Homo sapiens, UniProt Q14012)
In short: as §1

Chain of CSNK1A1L (Q8N752 whole entry): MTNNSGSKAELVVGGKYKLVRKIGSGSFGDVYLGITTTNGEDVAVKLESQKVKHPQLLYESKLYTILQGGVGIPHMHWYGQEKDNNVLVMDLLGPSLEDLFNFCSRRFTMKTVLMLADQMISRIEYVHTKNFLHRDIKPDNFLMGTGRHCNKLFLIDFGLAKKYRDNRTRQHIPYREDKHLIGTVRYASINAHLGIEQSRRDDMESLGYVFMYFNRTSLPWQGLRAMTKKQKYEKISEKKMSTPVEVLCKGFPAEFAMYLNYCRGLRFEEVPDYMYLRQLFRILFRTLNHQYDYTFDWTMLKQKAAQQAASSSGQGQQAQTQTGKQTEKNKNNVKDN
Chain of GRK4 (P32298 whole entry): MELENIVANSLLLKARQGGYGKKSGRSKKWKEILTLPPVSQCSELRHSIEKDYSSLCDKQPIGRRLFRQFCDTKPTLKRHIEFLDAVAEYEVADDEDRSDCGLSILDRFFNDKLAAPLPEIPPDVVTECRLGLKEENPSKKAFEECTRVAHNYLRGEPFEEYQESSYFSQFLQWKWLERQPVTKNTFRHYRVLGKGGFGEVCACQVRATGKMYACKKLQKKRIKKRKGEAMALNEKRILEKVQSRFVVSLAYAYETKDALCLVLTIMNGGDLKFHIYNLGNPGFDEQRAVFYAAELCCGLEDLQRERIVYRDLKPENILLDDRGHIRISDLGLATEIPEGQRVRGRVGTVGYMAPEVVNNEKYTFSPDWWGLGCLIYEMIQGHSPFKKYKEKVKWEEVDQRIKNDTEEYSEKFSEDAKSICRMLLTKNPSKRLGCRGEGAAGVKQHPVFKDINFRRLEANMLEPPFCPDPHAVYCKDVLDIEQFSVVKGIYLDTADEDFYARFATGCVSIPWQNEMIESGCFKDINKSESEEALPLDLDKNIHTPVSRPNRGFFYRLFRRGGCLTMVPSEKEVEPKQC
Chain of CAMK1 (Q14012 whole entry): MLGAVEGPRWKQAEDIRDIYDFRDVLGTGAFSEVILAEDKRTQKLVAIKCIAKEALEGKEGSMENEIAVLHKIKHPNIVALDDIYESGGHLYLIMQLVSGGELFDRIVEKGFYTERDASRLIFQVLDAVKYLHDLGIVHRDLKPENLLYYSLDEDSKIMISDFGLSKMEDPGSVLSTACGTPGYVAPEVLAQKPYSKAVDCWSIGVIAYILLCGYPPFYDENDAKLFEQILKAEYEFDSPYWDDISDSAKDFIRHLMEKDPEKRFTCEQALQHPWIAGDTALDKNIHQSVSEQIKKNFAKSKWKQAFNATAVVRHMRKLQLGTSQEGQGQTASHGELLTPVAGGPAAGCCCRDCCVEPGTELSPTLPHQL
T6 sequence (Q9P2K8 whole entry S808G): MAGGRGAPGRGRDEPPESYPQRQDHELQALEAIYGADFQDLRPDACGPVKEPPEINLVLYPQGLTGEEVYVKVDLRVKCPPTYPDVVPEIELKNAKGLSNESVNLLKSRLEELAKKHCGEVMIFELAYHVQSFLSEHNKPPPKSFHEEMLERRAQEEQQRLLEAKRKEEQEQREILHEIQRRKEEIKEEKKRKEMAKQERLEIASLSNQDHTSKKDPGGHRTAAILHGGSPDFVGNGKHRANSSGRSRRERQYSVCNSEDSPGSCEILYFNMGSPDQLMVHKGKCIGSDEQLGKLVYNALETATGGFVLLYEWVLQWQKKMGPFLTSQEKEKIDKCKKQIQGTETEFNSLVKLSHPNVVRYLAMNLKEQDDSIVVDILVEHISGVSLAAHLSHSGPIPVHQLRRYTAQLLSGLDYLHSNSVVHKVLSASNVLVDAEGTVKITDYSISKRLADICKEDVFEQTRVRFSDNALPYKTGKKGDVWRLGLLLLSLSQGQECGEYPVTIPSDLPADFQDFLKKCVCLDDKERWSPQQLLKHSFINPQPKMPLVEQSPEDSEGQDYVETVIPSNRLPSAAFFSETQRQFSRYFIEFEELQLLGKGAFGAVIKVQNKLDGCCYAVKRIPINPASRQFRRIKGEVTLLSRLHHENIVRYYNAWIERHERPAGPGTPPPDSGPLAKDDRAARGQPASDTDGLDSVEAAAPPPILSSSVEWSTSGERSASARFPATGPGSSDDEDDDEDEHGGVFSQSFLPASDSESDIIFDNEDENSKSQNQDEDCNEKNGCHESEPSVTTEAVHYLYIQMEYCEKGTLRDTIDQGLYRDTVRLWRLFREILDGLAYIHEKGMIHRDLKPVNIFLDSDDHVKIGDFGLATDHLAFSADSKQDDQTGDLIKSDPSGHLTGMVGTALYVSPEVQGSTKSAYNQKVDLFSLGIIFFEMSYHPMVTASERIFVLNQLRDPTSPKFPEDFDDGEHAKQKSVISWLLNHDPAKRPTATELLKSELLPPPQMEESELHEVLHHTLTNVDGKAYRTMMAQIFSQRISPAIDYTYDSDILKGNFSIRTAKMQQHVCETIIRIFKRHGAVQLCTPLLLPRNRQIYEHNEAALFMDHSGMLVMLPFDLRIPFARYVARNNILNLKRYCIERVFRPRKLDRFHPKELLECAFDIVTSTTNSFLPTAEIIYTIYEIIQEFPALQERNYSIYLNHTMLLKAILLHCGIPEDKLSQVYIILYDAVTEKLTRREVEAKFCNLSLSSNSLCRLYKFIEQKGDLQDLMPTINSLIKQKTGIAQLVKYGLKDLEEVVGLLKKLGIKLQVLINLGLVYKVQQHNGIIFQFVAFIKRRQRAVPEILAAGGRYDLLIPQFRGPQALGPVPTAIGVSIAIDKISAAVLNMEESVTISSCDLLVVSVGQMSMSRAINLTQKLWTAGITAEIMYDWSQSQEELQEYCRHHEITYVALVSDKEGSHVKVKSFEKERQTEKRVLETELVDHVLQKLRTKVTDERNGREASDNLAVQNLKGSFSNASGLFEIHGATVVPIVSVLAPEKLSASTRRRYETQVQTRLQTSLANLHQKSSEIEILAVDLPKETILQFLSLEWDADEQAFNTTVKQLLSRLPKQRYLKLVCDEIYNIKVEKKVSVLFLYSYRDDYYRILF
Chain of MYO3B (Q8WXR4 whole entry): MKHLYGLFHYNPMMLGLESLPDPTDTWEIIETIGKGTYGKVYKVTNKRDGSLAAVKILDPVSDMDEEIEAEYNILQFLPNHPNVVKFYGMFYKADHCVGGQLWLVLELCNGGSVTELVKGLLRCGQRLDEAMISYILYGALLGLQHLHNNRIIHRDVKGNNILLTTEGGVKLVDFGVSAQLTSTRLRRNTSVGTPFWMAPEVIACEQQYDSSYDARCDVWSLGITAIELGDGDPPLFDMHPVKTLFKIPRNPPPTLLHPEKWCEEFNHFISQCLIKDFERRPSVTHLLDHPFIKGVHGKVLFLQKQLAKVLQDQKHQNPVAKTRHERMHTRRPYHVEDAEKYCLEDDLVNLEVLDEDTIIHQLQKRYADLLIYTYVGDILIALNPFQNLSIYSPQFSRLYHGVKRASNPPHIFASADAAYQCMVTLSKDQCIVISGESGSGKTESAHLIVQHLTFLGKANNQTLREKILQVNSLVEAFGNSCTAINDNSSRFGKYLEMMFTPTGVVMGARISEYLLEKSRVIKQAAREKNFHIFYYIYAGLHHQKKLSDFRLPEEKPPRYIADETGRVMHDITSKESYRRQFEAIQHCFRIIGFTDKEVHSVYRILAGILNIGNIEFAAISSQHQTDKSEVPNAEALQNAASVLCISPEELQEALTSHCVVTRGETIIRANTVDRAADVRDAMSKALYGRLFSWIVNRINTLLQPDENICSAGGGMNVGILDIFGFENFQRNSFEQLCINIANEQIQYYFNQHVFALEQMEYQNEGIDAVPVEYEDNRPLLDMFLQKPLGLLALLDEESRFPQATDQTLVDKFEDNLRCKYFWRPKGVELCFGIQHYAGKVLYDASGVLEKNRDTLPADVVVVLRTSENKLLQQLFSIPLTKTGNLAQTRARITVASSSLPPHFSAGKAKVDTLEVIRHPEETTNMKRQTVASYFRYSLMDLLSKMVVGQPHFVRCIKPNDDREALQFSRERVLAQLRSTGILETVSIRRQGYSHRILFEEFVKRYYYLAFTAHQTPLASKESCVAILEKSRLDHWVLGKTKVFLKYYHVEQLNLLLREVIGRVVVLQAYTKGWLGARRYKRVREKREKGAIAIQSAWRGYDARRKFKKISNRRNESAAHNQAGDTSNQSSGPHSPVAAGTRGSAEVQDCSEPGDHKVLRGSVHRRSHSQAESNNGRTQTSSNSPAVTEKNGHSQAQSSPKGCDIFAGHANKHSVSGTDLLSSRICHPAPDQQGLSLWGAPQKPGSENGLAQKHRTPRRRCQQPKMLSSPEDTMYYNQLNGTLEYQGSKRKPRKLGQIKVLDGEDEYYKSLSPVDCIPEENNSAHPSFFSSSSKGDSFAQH
Chain of TESK1 (Q15569 whole entry): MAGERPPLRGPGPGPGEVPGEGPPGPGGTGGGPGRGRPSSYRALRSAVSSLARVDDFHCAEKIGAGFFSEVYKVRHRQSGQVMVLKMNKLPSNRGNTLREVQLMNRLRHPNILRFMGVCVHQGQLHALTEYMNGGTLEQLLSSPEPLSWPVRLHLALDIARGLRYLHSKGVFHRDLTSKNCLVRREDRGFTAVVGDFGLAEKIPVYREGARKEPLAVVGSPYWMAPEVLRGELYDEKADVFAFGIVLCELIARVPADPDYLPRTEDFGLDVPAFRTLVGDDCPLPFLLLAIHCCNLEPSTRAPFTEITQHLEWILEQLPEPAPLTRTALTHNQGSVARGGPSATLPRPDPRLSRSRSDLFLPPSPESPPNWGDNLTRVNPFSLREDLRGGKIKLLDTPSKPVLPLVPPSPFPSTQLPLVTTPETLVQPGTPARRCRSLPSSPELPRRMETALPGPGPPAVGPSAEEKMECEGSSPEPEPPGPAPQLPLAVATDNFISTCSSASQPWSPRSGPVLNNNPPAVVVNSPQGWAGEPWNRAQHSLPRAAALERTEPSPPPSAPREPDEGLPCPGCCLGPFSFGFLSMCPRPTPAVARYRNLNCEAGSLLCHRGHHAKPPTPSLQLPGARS

[O-][S@@+](Cc1cncs1)C(c1ccccc1)c1ccccc1 [S-CE-123, (S)-5-((Benzhydrylsulfinyl)Methyl)Thiazole]
remaining binding at 2.8 µM (PIK3C2B): 98%
remaining binding at 2.8 µM (RET): 96%
remaining binding at 2.8 µM (GAK): 100%
remaining binding at 2.8 µM (CDKL3): 81%
remaining binding at 2.8 µM (EPHA2): 73%
remaining binding at 2.8 µM [1]: 100%
remaining binding at 2.8 µM [2]: 100%
remaining binding at 2.8 µM (DAPK2): 96%
remaining binding at 2.8 µM (PRKG1): 100%
remaining binding at 2.8 µM (TESK1): 96%
remaining binding at 2.8 µM (GRK4): 73%
remaining binding at 2.8 µM (PRP4): 92%
remaining binding at 2.8 µM (SgK110): 72%
remaining binding at 2.8 µM [3]: 94%
remaining binding at 2.8 µM (KIT(V559D)): 97%
remaining binding at 2.8 µM (BMX): 57%
remaining binding at 2.8 µM (FES): 95%
remaining binding at 2.8 µM (BRAF(V600E)): 100%
remaining binding at 2.8 µM (MYO3B): 52%
remaining binding at 2.8 µM (GCN2(Kin.Dom.2,S808G)): 100%
remaining binding at 2.8 µM (TNK1): 74%
remaining binding at 2.8 µM (CSNK1A1L): 100%
remaining binding at 2.8 µM (KIT-autoinhibited): 86%
remaining binding at 2.8 µM (MARK4): 98%
remaining binding at 2.8 µM (S6K1): 90%
remaining binding at 2.8 µM (CAMK1): 97%
